Where a name gives a salt, the structure may show the parent alone.

Data on five molecules can be found in patent publication US20090203711A1, “Inhibitors of P38 Map Kinase” (CHROMA THERAPEUTICS LTD., priority 2006, published 2009).

One test deals with human whole blood. Description: LPS-stimulation of human whole blood, TNF-α release by ELISA. The class given is cell-based. The settings on record: LPS 100 ng/ml, 6 hrs, inhibitor added 2 hrs before, read-out: Inhibitor activity versus human whole blood TNFα release. On the procedure: LPS-Stimulation of Human Whole Blood
Whole blood was taken by venous puncture using heparinised vacutainers (Becton Dickinson) and diluted in an equal volume of RPMI 1640 tissue culture media (Sigma). 100 μl was plated in V-bottomed 96 well tissue culture treated plates. 2 hrs after the addition of the inhibitor in 100 μl of RPMI 1640 media, the blood was stimulated with LPS (E. coli strain 005:B5, Sigma) at a final concentration of 100 ng/ml and incubated at 37° C. in 5% CO2 for 6 hrs. TNF-α levels were measured from cell-free supernatants by sandwich ELISA (R&D Systems #QTA00B)

Another test relates to THP-1 cells. As to the kind of experiment: LPS-stimulation of THP-1 cells, TNF-α release by ELISA. The settings on record: Homo sapiens, LPS 1 μg/ml, 6 hrs, inhibitor added 2 hrs before, read-out: Inhibitor activity versus THP-1 TNFα release. It counts as cell-based. The protocol:
LPS-Stimulation of THP-1 Cells
THP-1 cells were plated in 100 μl at a density of 4×10^4 cells/well in V-bottomed 96 well tissue culture treated plates and incubated at 37° C. in 5% CO2 for 16 hrs. 2 hrs after the addition of the inhibitor in 100 μl of tissue culture media, the cells were stimulated with LPS (E coli strain 005:B5, Sigma) at a final concentration of 1 μg/ml and incubated at 37° C. in 5% CO2 for 6 hrs. TNF-α levels were measured from cell-free supernatants by sandwich ELISA (R&D Systems #QTA00B)

`Nc1c(C(=O)c2ccc(F)cc2F)ccc(=O)n1-c1c(F)cc(OCC[C@@H](N)C(=O)OC2CCCC2)cc1F` [Example 4, Cyclopentyl (R)-2-Amino-4-{4-[6-amino-5-(2,4-difluorobenzoyl)-2-oxo-2H-pyridin-1-yl]-3,5-difluorophenoxy}butanoate Trifluoroacetate]: the IC50 in the test with human whole blood was 100 to 1000 nM.

As to `CC(C)(C)OC(=O)[C@@H](N)CCCOc1cc(F)c(-n2c(N)c(C(=O)c3ccc(F)cc3F)ccc2=O)c(F)c1` [Example 6, Tert-Butyl (S)-2-Amino-5-{4-[6-amino-5-(2,4-difluorobenzoyl)-2-oxo-2H-Pyridin-1-yl]-3,5-difluorophenoxy}pentanoate], in the test on human whole blood, the IC50 was 100 to 1000 nM.

As for `Nc1c(C(=O)c2ccc(F)cc2)ccc(=O)n1-c1c(F)cc(OCCC[C@H](N)C(=O)OC2CCCC2)cc1F` [Example 7], the IC50 in the test on human whole blood lay within 100 to 1000 nM.

Regarding `CC(C)(C)OC(=O)N[C@@H](CCCOc1cc(F)c(-n2c(N)c(C(=O)c3ccc(F)cc3F)ccc2=O)c(F)c1)C(=O)OC1CCCC1` [Intermediate 1, Cyclopentyl (S)-5-{4-[6-Amino-5-(2,4-difluorobenzoyl)-2-oxo-2H-pyridin-1-yl]-3,5-difluorophenoxy}-2-tert-butoxycarbonylamino Pentanoate], in the test with THP-1 cells, the IC50 is 100 to 1000 nM.

For the molecule `CC(C)(C)OC(=O)N[C@@H](CCOc1cc(F)c(-n2c(N)c(C(=O)c3ccc(F)cc3F)ccc2=O)c(F)c1)C(=O)OC1CCCC1` [Intermediate 2, Cyclopentyl (S)-4-{4-[6-Amino-5-(2,4-difluorobenzoyl)-2-oxo-2H-pyridin-1-yl]-3,5-difluorophenoxy}-2-tert-butoxycarbonylaminobutyrate], the IC50 in the test on THP-1 cells was 100 to 1000 nM.
